Experimental data from article PMC8233831, “On the Inhibitability of Natural Products Isolated from Tetradium ruticarpum towards Tyrosine Phosphatase 1B (PTP1B) and α-Glucosidase (3W37): An In Vitro and In Silico Study” (Molecules, 2021).
Like-named read-outs stand apart in the source and are kept apart here.

Assays:
[1] = test system: obese/diabetic KK-Ay mice; set-up: method as in PMID 24391749; conditions: cited from earlier work
[2] = test system: peroxisome proliferator-activated receptors (PPARs); set-up: method as in PMID 30827999; conditions: cited from earlier work
[3] = target: T1, Protein tyrosine phosphatase 1B (human recombinant) (Homo sapiens, UniProt P18031); experiment: Protein tyrosine phosphatase 1B inhibition assay (p-NPP substrate); format: biochemical; conditions: means ± SD of three replicates; read-out: PTP1B IC50
T1 construct: purchased Biomol International LP, Plymouth Meeting, Pennsylvania, PA, USA
T1 sequence (P18031 1-435): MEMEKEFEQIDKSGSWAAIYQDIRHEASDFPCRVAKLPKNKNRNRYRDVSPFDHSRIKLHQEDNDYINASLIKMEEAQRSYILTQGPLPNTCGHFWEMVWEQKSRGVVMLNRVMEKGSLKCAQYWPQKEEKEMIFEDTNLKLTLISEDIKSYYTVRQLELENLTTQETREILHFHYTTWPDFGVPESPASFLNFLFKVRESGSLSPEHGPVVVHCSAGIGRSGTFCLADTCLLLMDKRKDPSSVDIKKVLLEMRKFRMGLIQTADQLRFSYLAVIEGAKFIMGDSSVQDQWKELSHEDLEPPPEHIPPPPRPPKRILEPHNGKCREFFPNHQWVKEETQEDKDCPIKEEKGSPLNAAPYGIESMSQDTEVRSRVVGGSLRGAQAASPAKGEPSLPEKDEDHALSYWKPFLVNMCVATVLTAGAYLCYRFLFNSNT
Procedure: Protein tyrosine phosphatase 1B (human recombinant), i.e., PTP1B, was purchased from Biomol International LP, Plymouth Meeting, Pennsylvania, PA, USA, and the inhibitory activities of the tested samples were evaluated using the method as described. In a typical procedure, 0.05–0.1 μg of PTP1B (BIOMOL International L.P., Plymouth Meeting, Pennsylvania, PA, USA) and 4 mM p-NPP in a buffer containing 1 mM dithiothreitol, 0.1 M NaCl, 1 mM EDTA, and 50 mM citrate (pH 6.0), with or without test compounds, were added, with 100 μL final volume to each of the 96 wells. After the reaction mixture was incubated at 37 °C for 30 min, 10 M NaOH was added to quench the reaction. PTP1B enzyme activity was determined by the amount of produced p-nitrophenol at 405 nm. The nonenzymatic hydrolysis of the substrate was corrected by measuring the control, which contained no PTP1B enzyme.

α-glucosidase = experiment: α-Glucosidase inhibition assay (pNPG substrate); format: biochemical; conditions: means ± SD of three replicates
Procedure: The inhibitory activity of α-glucosidase was determined according to the modified method with a readily available enzyme. In a typical procedure, α-glucosidase (0.1 U/mL, Wako) was dissolved in 100 mM sodium phosphate buffer (pH 6.8) and used as an enzyme solution. A total of 1 mM p-Nitrophenyl-α-D-glucopyranoside (pNPG) in the same buffer (pH 6.8) was used as a substrate solution. […] After substrate solution (95 μL) was added, the sample solution was incubated for another 10 min at 37 °C incubator. Enzymatic activity was quantified by measuring absorbance at 405 nm using an enzyme-linked immunosorbent assay (ELISA) microplate reader (D.I Biotech Ltd., Seoul, Korea).

Candida albicans = test system: Candida albicans; set-up: method as in PMID 33971509; conditions: cited from earlier work
nitric oxide production = test system: nitric oxide production; set-up: method as in PMID 26753624; conditions: cited from earlier work
A549 cells [4] = test system: A549 cells; set-up: method as in PMID 25470278; conditions: cited from earlier work
A549 cells [5] = test system: A549 cells; set-up: method as in PMID 25470278; conditions: applied before 60Co γ-irradiation; cited from earlier work
[6] = test system: Staphyloccocus aureus (ATCC25923); set-up: method as in PMID 23651559; conditions: cited from earlier work
[7] = test system: Staphylococcus epidermidis (ATCC12228); set-up: method as in PMID 23651559; conditions: cited from earlier work
[8] = test system: Bacillus subtilis (ATCC6633); set-up: method as in PMID 23651559; conditions: cited from earlier work
HepG2 = test system: HepG2; set-up: method as in PMID 23651559; conditions: HepG2, MTT method; cited from earlier work
Hela = test system: Hela; set-up: method as in PMID 23651559; conditions: MTT method; cited from earlier work
BEL7402 = test system: BEL7402; set-up: method as in PMID 23651559; conditions: BEL7402, MTT method; cited from earlier work
BEL7403 = test system: BEL7403; set-up: method as in PMID 23651559; conditions: BEL7403, MTT method; cited from earlier work
[9] = test system: Jurkat T cells clone E6.1; set-up: method as in doi:10.5012/bkcs.2010.31.04.1081; conditions: Jurkat T cells clone E6.1, MTT method; cited from earlier work
[10] = test system: experimental liver cancer cells in rats; set-up: method as in ref 32 = [32]; 32. Bai J.W. Zhang Y. Yang M.J. Effects of schinifoline on cytoskeleton of experimental hepatoma in rats observed by whole mount cell transmission electron microscopy Beijing Zhongyiyao Daxue Xuebao 2; conditions: by influencing cytoskeleton; cited from earlier work
[11] = test system: experimental hepatocarcinogenesis; set-up: method as in ref 33 = [33]; 33. Bai J.W. Zhang Y. Wu J. Flow cytometric analysis of the schinifoline inhibition on rat hepatoma cell induced by DEN Beijing Zhongyiyao Daxue Xuebao 1999 22 34 35; conditions: by inhibiting hepatoma cell's DNA synthesis; cited from earlier work
aldose reductase = test system: aldose reductase; set-up: method as in PMID 17498942; conditions: cited from earlier work
sorbitol accumulation = test system: sorbitol accumulation; set-up: method as in PMID 17498942; conditions: at 100 μM; cited from earlier work

For evodiamine, the “obesity and insulin resistance” value [1] is given as “reduced obesity and insulin resistance” and the “activation of PPARs” value [2] is given as “activate peroxisome proliferator-activated receptors”.
For `CCCCCCCc1cc(=O)c2ccccc2n1C` [Compound 1, 2-heptyl-1-methylquinolin-4-one], the IC50 [3] is given as 24.3 ± 0.8 µM, the IC50 (α-glucosidase) is given as 92.1 ± 0.8 µM and the “effect on negative effects of Candida albicans in vivo” value (Candida albicans) is given as “inhibited the negative effects of Candida albicans in vivo”. For the same molecule, the “in vitro inhibitory effect on nitric oxide production” value (nitric oxide production) was “did not show in vitro inhibitory effect”, the “cytotoxicity on A549 cells IC50” value (A549 cells [4]; 6 h treatment) was 33.7 ± 2.4 µg/mL and the “cytotoxicity on A549 cells IC50” value (A549 cells [4]; 12 h treatment) was 21.9 ± 1.9 µg/mL. For the same molecule, the “cytotoxicity on A549 cells IC50” value (A549 cells [4]; 24 h treatment) was 16.8 ± 2.2 µg/mL, the “radio-sensitivity of A549 cells” value (A549 cells [5]) was “enhanced the radio-sensitivity of A549 cells” and the antibacterial activity [6] was “no antibacterial activity”. For the same molecule, the antibacterial activity [7] was “no antibacterial activity”, the antibacterial activity [8] was “no antibacterial activity” and the cytotoxicity (HepG2) was “no cytotoxicity”. The cytotoxicity (Hela) was “no cytotoxicity”, the cytotoxicity (BEL7402) was “no cytotoxicity” and the cytotoxicity (BEL7403) was “no cytotoxicity”. The cytotoxicity [9] was “no cytotoxicity”, the “treatment of experimental liver cancer cells in rats” value [10] was “can be used to treat experimental liver cancer cells in rats” and the “treatment of experimental hepatocarcinogenesis” value [11] was “can treat experimental hepatocarcinogenesis”.
In the case of `CNc1ccccc1C(=O)N1CCc2c([nH]c3ccccc23)C1=O` [rhetsinine], the aldose reductase inhibition (aldose reductase) is listed as “inhibited aldose reductase in a dose-dependent manner” and the “inhibition of sorbitol accumulation” value (sorbitol accumulation) is listed as 79.3%.
In the case of `CC(=CCOc1ccc(C=CCO)cc1)CO` [Compound 2, 3-[4-(4-methylhydroxy-2-butenyloxy)-phenyl]-2-propenol], the IC50 [3] is given as 47.7 ± 1.1 µM, the IC50 (α-glucosidase) is given as 167.4 ± 1.4 µM and the “in vitro inhibitory effect on nitric oxide production” value (nitric oxide production) is given as “did not show in vitro inhibitory effect”.
